Measurements reported in PubChem BioAssay (NCI).
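At the GI50, growth is halved. TGI denotes the concentration required for complete inhibition of growth.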

Key:
Assay in all cases: inhibition of tumour cell growth, NCI panel, 384-well format
[1] = system: A498 renal
[2] = system: CAKI-1 renal
[3] = system: COLO 205 colon
[4] = system: HCT-15 colon
[5] = system: HOP-92 NSCLC
[6] = system: IGROV1 ovarian
[7] = system: K-562 leukemia
[8] = system: M14 melanoma
[9] = system: MDA-MB-435 melanoma
[10] = system: RPMI-8226 leukemia
[11] = system: SR leukemia
[12] = system: TK-10 renal
[13] = system: UACC-62 melanoma

For `O=C1CC[C@H](N2Cc3c(OCc4ccc(CN5CCOCC5)cc4)cccc3C2=O)C(=O)N1`, the GI50 [1] was > 100 µM, the TGI [1] was > 100 µM and the GI50 [2] was > 100 µM. For the same compound, the TGI [2] was > 100 µM, the GI50 [3] was > 100 µM and the TGI [3] was > 100 µM. For the same compound, the GI50 [4] was > 100 µM, the TGI [4] was > 100 µM and the GI50 [5] was > 100 µM. The TGI [5] was > 100 µM, the GI50 [6] was > 100 µM and the TGI [6] was > 100 µM. For the same compound, the GI50 [7] was > 100 µM, the TGI [7] was > 100 µM and the GI50 [8] was > 100 µM. For the same compound, the TGI [8] was > 100 µM, the GI50 [9] was > 100 µM and the TGI [9] was > 100 µM. For the same compound, the GI50 [10] was 11.9 µM, the TGI [10] was > 100 µM and the GI50 [11] was > 100 µM. For the same compound, the TGI [11] was > 100 µM, the GI50 [12] was > 100 µM and the TGI [12] was > 100 µM. For the same compound, the GI50 [13] was > 100 µM and the TGI [13] was > 100 µM.
